Measured values: patent US20250313563A1, “GLYCOGEN SYNTHASE KINASE 3 INHIBITORS AND USES THEREOF” (The Broad Institute, Inc., priority 2022, published 2025)
Where two headings read alike, the source gives them in different places.

Assays:
GSK3α = GSK3α (Homo sapiens (Human), UniProt P49840); test: pThr231 tau phosphorylation plate-based assay in HEK-huTau cells transfected with GSK3α; format: cell-based; details: for IC50: HEK-huTau cells transfected with human GSK3α, 10-point dose response, 2 hours, read-out: GSK3α IC50 (inhibition of pThr231); for selectivity for GSK3α over GSK3β: pThr231 HEK-huTau assay, GSK3β IC50 / GSK3α IC50
Method: (§1) HEK293 or SH-SY5Y cells were obtained from American Type Culture Collection (ATCC, Manassas, VA) and cultured in Dulbecco's modified Eagle's medium (DMEM) supplemented with 10% fetal bovine serum (FBS), 10 units/ml penicillin, and 10 μg/ml streptomycin (all reagents were purchased from Gibco, Waltham, MA). Cell cultures were maintained in a humidified 5% (v/v) CO2/air environment at 37° C. When the cells reached 50-80% confluence, they were transfected with a complex consisting of a 3:1 ratio of FuGENE 6 Transfection Reagent (Promega, Madison, WI) and plasmid DNA. Plasmid DNA was balanced out across reactions using an empty plasmid so that the same amount of DNA was added per well. This transfection complex was prepared following the manufacturers protocol and added directly to the cell media for 24 or 48 hours prior to lysis.
(§2) 293T cells stably expressing human 2N4R Tau were transfected with appropriate cDNA plasmids. 24 hours following transfection cells were treated with compound in a 10-point dose-response (from 1000× stocks of compound) and lysates harvested 2 hours later with cell extraction buffer (Life Technologies Cat #BN0001) or RIPA Buffer with Halt protease/phosphatase inhibitors added.
(§3) For pThr231 assay: Lysate was diluted 1:100 in assay buffer and Total Tau and pTau T231 was assessed by plate-based ELISA as per manufacturer instructions (MSD Cat #K15121D-1). Total fluorescence was measured using an Envison plate reader.
(§4) To test the potency and isoform selectivity of GSK3 small molecule inhibitors, HEK-huTau cells were transfected with plasmids containing either human GSK3α or GSK3β. Twenty-four hours after transfection, compounds were added at a 10-point dose response curve (at a range of 30 μM-3 nM) for a total of 2 hours, and cell lysates were probed for total tau and pThr231 using a plate-based assay.

human GSK3β = human GSK3β (Homo sapiens (Human), UniProt P49841); test: pThr231 tau phosphorylation plate-based assay in HEK-huTau cells transfected with GSK3β; format: cell-based; details: HEK-huTau cells transfected with human GSK3β; 10-point dose response, 2 hours; read-out: GSK3β IC50 (inhibition of pThr231)
Method: as §1, §2, §3, §4

NanoLuc-GSK3α [1] = target: T1, NanoLuc-GSK3α (Homo sapiens (Human), UniProt P49840); test: NanoBRET live-cell target engagement assay, GSK3α; format: cell-based; details: HEK293T cells, Tracer-8 at EC50
Method: (§5) HEK293T cells were transiently transfected with NanoLuc®-GSK3-alpha or NanoLuc®-GSK3-beta constructs using FuGene®-HD (Promega). Next day, the live cell NanoBRETTM target engagement assay was performed. […] Immediately prior to BRET measurements, NanoBRETTM Nano-Glo® Substrate and Extracellular NanoLuc® Inhibitor were added on cells and incubated for 2-3 minutes at room temperature. Donor emission at 450 nm and acceptor emission at 610 nm were measured using a EnVision plate reader. Raw BRET ratio values were calculated by dividing the acceptor emission value by the donor emission value for each sample. Raw BRET units were converted to milliBRET units (mBU) by multiplying each raw BRET value by 1000. mBU values for compound treatments were normalized to DMSO treatment. Ki values are calculated using the formula: Ki=(IC50)/(1+([Tracer]/EC50)). All experiments were performed as biological triplicates with three technical replications.
(§6) To further characterize the GSK3 inhibitor 837646, this compound was tested in a live-cell target engagement assay to investigate binding mode and residence time. […] In this assay, compound binding was quantified as loss of BRET signal from baseline due to competitive displacement of the tracer. […]

NanoLuc-GSK3β = NanoLuc-GSK3β (Homo sapiens (Human), UniProt P49841); test: NanoBRET live-cell target engagement assay, GSK3β; format: cell-based; details: HEK293T cells, Tracer-8 at EC50
Method: as §5, §6

NanoLuc-GSK3α [2] = target: T1, NanoLuc-GSK3α; test: NanoBRET residence time, GSK3α; format: cell-based; details: inhibitor at 10× IC50, BRET every 5 min for 3 hours
[3] = tested on: β-catenin nuclear translocation in SH-SY5Y cells; test: β-catenin translocation assay; format: cell-based; details: SH-SY5Y cells
Method: SH-SY5Y cells were seeded into a 96-well CellCarrier Ultra (Perkin Elmer) plate at a density of 1×10^5 cells/ml in complete DMEM. Sixteen hours following plating, media was changed to DMEM with 2% serum, and compound was added with a D300e Digital Dispenser (Tecan) for an incubation time of six hours. After compound incubation, media was removed, and cells were fixed with 4% PFA for 10 minutes at room temperature. Each well was washed three times with PBS-T and then blocked with buffer (1×PBS with 5% Normal Goat Serum and 0.3% Triton X-100) for 30 minutes at room temperature. β-Catenin primary antibody (Cell Signaling #8480) was added at 1:500 dilution in blocking buffer and the cells were allowed to incubate in primary overnight at 4° C. The following day, primary antibody was removed, each well was washed three times with PBS-T, and secondary antibody (1:2000 anti-rabbit AlexaFluor Plus 488 and 1:10,000 Hoechst 33342) was added and allowed to incubate for 60 minutes at room temperature protected from light. After one-hour, secondary antibody was removed and wells were washed four times with PBS-T before imaging on the Opera Phenix. Sixteen fields per well were imaged with a 20× water lens.
Images were quantified in the Columbus Image Data Storage and Analysis software. Cells were identified using the Hoechst nuclear stain to identify individual nuclei. Intensity of the nuclear stain was also used to determine cell viability (Viable cells <30% CV of Hoechst Intensity)

[4] = target: GSK3α (GST-full length GSK3α) (Homo sapiens (Human), UniProt P49840); test: GSK3α TR-FRET kinase assay; format: biochemical
How it was run: (§7)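 Compound preincubated 30 min, then 1 nM GST-full-length GSK3α or GSK3b run 100 min at ambient temperature with 200 nM biotinylated, S645-prephosphorylated glycogen synthase 631-650 peptide in Tris pH 7.5, MgCl2, DTT, BSA, 1% DMSO. ATP 4 μM (α) or 2 μM (β), or 1 mM. EDTA-quenched; Tb-anti-pSer641/streptavidin-d2 TR-FRET 665/615 ratio gave IC50.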

[5] = target: GSK3b (GST-full length GSK3b) (Homo sapiens (Human), UniProt P49841); test: GSK3b TR-FRET kinase assay; format: biochemical
How it was run: as §7

[6] = 1 nM GSK3α, 4 μM ATP, 30 minute preincubation, Table 16, read-out: GSK3-A TR-FRET BIOCHEMICAL (TR-FRET)
[7] = 1 nM GSK3b, 2 μM ATP, 30 minute preincubation, Table 16, read-out: GSK3-B TR-FRET BIOCHEMICAL (TR-FRET)

GSK3b (GST-full length GSK3b), sequence (P49841 whole entry): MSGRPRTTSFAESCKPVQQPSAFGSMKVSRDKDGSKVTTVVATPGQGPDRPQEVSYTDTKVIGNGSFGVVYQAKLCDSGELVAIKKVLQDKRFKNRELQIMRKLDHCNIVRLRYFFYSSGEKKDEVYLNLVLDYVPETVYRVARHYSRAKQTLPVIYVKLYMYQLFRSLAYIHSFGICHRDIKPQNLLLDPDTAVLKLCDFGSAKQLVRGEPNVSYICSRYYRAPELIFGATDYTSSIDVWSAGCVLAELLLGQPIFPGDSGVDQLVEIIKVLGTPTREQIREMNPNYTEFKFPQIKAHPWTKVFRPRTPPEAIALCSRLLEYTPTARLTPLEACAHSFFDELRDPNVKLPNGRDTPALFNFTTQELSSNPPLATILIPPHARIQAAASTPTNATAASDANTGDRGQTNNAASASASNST
GSK3α (GST-full length GSK3α), sequence (P49840 whole entry): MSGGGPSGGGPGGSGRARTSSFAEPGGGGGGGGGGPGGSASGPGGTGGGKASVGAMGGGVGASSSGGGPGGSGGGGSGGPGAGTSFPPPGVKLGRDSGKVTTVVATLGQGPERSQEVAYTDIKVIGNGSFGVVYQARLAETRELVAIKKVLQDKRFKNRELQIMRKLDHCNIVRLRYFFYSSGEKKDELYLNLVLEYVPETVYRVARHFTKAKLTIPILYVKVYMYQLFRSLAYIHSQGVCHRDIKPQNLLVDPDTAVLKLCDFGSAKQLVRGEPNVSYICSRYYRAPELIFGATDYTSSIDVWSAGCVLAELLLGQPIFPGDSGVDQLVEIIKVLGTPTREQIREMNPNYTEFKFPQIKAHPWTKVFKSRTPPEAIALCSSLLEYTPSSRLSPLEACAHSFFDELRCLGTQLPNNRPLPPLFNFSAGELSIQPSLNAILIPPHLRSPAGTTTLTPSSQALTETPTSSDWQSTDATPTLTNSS
T1 sequence (P49840 whole entry): as above
GSK3α, sequence (P49840 whole entry): as above
human GSK3β, sequence (P49841 whole entry): as the sequence (P49841 whole entry) above
NanoLuc-GSK3β, sequence (P49841 whole entry): as above

Row | IC50 (GSK3α) [µM] | selectivity for GSK3α over GSK3β (GSK3α) [fold] | IC50 (human GSK3β) [µM] | binding mode (competitive displacement of tracer), GSK3α (NanoLuc-GSK3α [1]) | binding mode (competitive displacement of tracer), GSK3β (NanoLuc-GSK3β) | residence time at GSK3α (NanoLuc-GSK3α [2]) | IC50 [4, 6] [µM] | IC50 ([4]; GSK3-A (TR-FRET 1 mM ATP), GMean, IC50, 1 mM ATP, geometric mean) [µM] | IC50 [5, 7] [µM] | IC50 ([5]; GSK3-B (TR-FRET 1 mM ATP), GMean, IC50, 1 mM ATP, geometric mean) [µM] | IC50 ([4]; read-out: GSK3-A (TR-FRET 1 mM ATP), GMean, IC50, 1 mM ATP, geometric mean) [µM] | IC50 ([5]; read-out: GSK3-B (TR-FRET 1 mM ATP), GMean, IC50, 1 mM ATP, geometric mean) [µM] | SMILES | β-catenin nuclear translocation (in words) [3]
1 | 0.061 | 23 | 1.4 | ATP-competitive and direct GSK3 binders | ATP-competitive and direct GSK3 binders | significantly longer residence times | ≤ 0.1 | ≤ 0.1 | ≤ 0.1 | 0.1 to 1 |  |  | CCC1(c2cccc(-c3cn(C)nc3C)c2)C2=C(Nc3n[nH]cc31)C(F)C(C)(C)CC2=O (single isomer, unassigned) [Compound 947651, 4-(3-(1,3-dimethyl-1H-pyrazol-4-yl)phenyl)-4-ethyl-8-fluoro-7,7-dimethyl-2,4,6,7,8,9-hexahydro-5H-pyrazolo[3,4-b]quinolin-5-one] | nuclear translocation of β-catenin occurred at concentrations in which both GSK3 paralogs are being inhibited
2 | 0.096 | 11 | 1 | ATP-competitive and direct GSK3 binders | ATP-competitive and direct GSK3 binders | significantly longer residence times | ≤ 0.1 |  | ≤ 0.1 |  | ≤ 0.1 | 0.1 to 1 | CCC1(c2cccc(-c3c(F)cncc3OC)c2)C2=C(Nc3n[nH]cc31)C(F)C(C)(C)CC2=O (stereo not shown) [Compound 948546, 4-ethyl-8-fluoro-4-(3-(3-fluoro-5-methoxypyridin-4-yl)phenyl)-7,7-dimethyl-2,4,6,7,8,9-hexahydro-SH-pyrazolo[3,4-b]quinolin-5-one] | nuclear translocation of β-catenin occurred at concentrations in which both GSK3 paralogs are being inhibited
